{"source": "patent US6423855B1", "about": "“Cytoprotective compounds” (Virginia Commonwealth University, priority 1996, dated 2002)", "key": {"epidermis cell turnover": {"test_system": "epidermis cell turnover", "assay": "cell turnover rate (dansyl chloride)", "format": "in vivo, human", "protocol": "Two PX compounds PX-11 and PX-13 were evaluated in a cream formulation prepared under GMP. The chemicals were formulated into a bland cream and evaluated in the following human or mouse skin tests: (1) occluded patch test for irritation; (2) cell turnover rate; (3) transepidermal water loss; (4) skin moisturization; and (5) reduction in erythema after induced sunburn. The human skin tests were conducted on three volunteer female subjects, ages 29-32; a cream base with no added active was included as a control, while the untreated skin served as an additional basis for evaluation. Sunburn tests were performed on a total of 30 hairless albino mice. 2. Cell turnover rate: This parameter was measured by adsorption of dansyl chloride, in which 3% dansyl chloride was incorporated into petrolatum. This salve was applied over a 2.5 cm diameter circular area in the upper arm and a patch applied. 24 hours later the patch was removed. The intensity of dansyl chloride fluorescence was indicative of the cell turnover rate in the epidermis."}, "outer skin layers": {"test_system": "outer skin layers", "assay": "skin moisturization (20 megahertz ultrasound)", "format": "in vivo, human", "details": "for Ultrasound Density Score: 30 minutes after application", "protocol": "Two PX compounds PX-11 and PX-13 were evaluated in a cream formulation prepared under GMP. The chemicals were formulated into a bland cream and evaluated in the following human or mouse skin tests: (1) occluded patch test for irritation; (2) cell turnover rate; (3) transepidermal water loss; (4) skin moisturization; and (5) reduction in erythema after induced sunburn. The human skin tests were conducted on three volunteer female subjects, ages 29-32; a cream base with no added active was included as a control, while the untreated skin served as an additional basis for evaluation. Sunburn tests were performed on a total of 30 hairless albino mice. 4. Skin moisturization. Skin moisturization was measured using 20 megahertz ultrasound (the presence of moisture produces a density decrease in the outer skin layers), before and 30 minutes after product application to the forearm."}, "[1]": {"test_system": "human NP-homogenate induced paw edema", "assay": "nucleus pulposus (NP)-induced mouse paw edema", "format": "in vivo", "protocol": "Human NP-homogenate was prepared according to the following protocol and stored frozen until use. Human vertebral discs were thawed and the tissue pieces were washed twice with isotonic saline. Tissue samples were homogenized in a minimum volume of isotonic saline using a Brinkman homogenizer. This homogenate was filtered through two layers of cheesecloth and the resultant filtrate was subjected to Dounce homogenization. This homogenate was again filtered through two layers of cheesecloth and the filtrate was capable of passing through a 26-gauge needle; 50 ul of the filtrate was administered to each mouse paw.\nThe filtrate contained 1.57 mg/ml of protein and its PLA2 activity was 12.8% hydrolysis of 10 nmols of E.coli phospholipid/10 ul filtrate/30 min. incubation at 37° C. Therefore, each mouse paw received 78.5 ug NP filtrate. This sample of 78,500 ng total protein contained approximately 4.3 ng NP PLA2 protein. By comparison, we use 500-2000 ng of highly purified PLA2 to induce edema in this mouse model; and under these experimental conditions the maximal edema achieved is 160% of the contralateral paw minus 4-7% edema due to saline injection alone.\nThe data are expressed as percent of contralateral paw and as percent of maximal edema achieved with purified PLA2. Fifty ul (78.5 ug) was injected into the paw 30 min. after the mice were treated with PX-13 in HEPES administered IP or by gavage at 30 or 60 mg/kg. After 3 hrs,the paws were excised and weighed."}, "[2]": {"test_system": "PLA2 activity in extracts of rat bowel", "assay": "PLA2 activity in extracts of rat bowel", "format": "biochemical"}, "small bowel graft": {"test_system": "small bowel graft", "assay": "small bowel transplantation ischemia-reperfusion injury", "format": "in vivo, rat", "protocol": "These drugs were also tested for their ability to enhance the preservation of tissues stored for subsequent transplantation. The small bowel was removed from rats, washed free of luminal contents and the tissue stored in University of Wisconsin (UW) preservative media ±40 uM PX-13 or mepacrine for 48 hrs. The graft was then transplanted into rats with or without intravenous (IV) infusion of 20 mg/kg PX-13 or mepacrine at the time of transplantation."}, "ischemic bowel": {"test_system": "ischemic bowel", "assay": "PLA2 release from ischemic bowel into media", "details": "24 hrs of ischemia", "description": "The addition of PX-13 reduced the enzyme release by more than 80% during 24 hrs of ischemia."}, "clone W2 (P.falciparum)": {"test_system": "clone W2 (P.falciparum)", "assay": "3H-hypoxanthine incorporation, P.falciparum clone W2", "format": "cell-based", "details": "Plasmodium falciparum, W2; chloroquine resistant, mefloquine sensitive clone, RBC culture; read-out: IC50 growth"}, "clone D6 (P. falciparum)": {"test_system": "clone D6 (P. falciparum)", "assay": "3H-hypoxanthine incorporation, P.falciparum clone D6", "format": "cell-based", "details": "Plasmodium falciparum, D6, read-out: IC50 growth"}, "platelets": {"test_system": "platelets", "assay": "platelet aggregation", "format": "cell-based", "details": "25-μM dose", "description": "(§1) Applicants have also observed that PX-13 inhibited serotonin release by thrombin-stimulated platelets. This observation supports the contention that the PX compounds of the present invention may block release of inflammatory mediators in the coagulation cascade. This observation also supports the use of PX compounds to inhibit thrombin-induced platelet aggregation and to act as anti-clotting agents."}, "[3]": {"test_system": "thrombin-stimulated platelets", "assay": "serotonin release by thrombin-stimulated platelets", "format": "cell-based", "description": "as §1"}, "mice": {"test_system": "mice", "assay": "acute toxicity (LD50 study), single IP dose", "format": "in vivo", "protocol": "An LD50 study was conducted to determine a lethal dose for PX-13 suspended in HEPES buffer at a pH of 7.4. A single IP dose of 50, 100, 200 or 400 mg/kg was administered to mice (n=6 per group). […] No necropsy was performed."}, "[4]": {"assay": "therapeutic index LD50/ED50"}}}
{"smiles": "CCCCCCCC/C=C\\CCCCCCCC(=O)OCC(COC(=O)CCCCCCC/C=C\\CCCCCCCC)(COC(=O)CCCCCCC/C=C\\CCCCCCCC)NCCS(=O)(=O)O", "note": "[PX-13, 2-[Tris(oleoyloxymethyl)methylamino]-1-ethanesulfonic acid]", "values": [{"measurement": "Days to Cell Renewal Treated", "setting": "epidermis cell turnover; cream-treated skin, upper arm", "result": 21.6, "unit": "days"}, {"measurement": "% Change in Cell Turnover Time", "setting": "epidermis cell turnover; treated vs untreated skin", "result": "−29", "unit": "%"}, {"measurement": "Ultrasound Density Score", "setting": "outer skin layers; Subject 1, 7 = Best, 1 = Baseline", "result": 1}, {"measurement": "Ultrasound Density Score", "setting": "outer skin layers; Subject 2", "result": 2}, {"measurement": "Ultrasound Density Score", "setting": "outer skin layers; Subject 3", "result": "−1"}, {"measurement": "Ultrasound Density Score Total", "setting": "outer skin layers; Total of 3 subjects, 7 = Best, 1 = Baseline", "result": 2}, {"measurement": "moisturization properties", "setting": "outer skin layers; in vivo", "result": "not good moisturizers"}, {"measurement": "Percent Edema", "setting": "[1]; Gavage 30 mg/kg", "result": "122 ± 5.6", "unit": "%"}, {"measurement": "Percent Edema", "setting": "[1]; Gavage 60 mg/kg", "result": "118 ± 2.0", "unit": "%"}, {"measurement": "Percent of Maximal", "setting": "[1]; Gavage 60 mg/kg", "result": 22, "unit": "%"}, {"measurement": "Percent Inhibition", "setting": "[1]; Gavage 60 mg/kg, 60 mg/kg", "result": 36, "unit": "%"}, {"measurement": "Percent Inhibition", "setting": "[1]; IP 30 mg/kg", "result": 24, "unit": "%"}, {"measurement": "Percent of Maximal", "setting": "[1]; IP 30 mg/kg, maximal edema with purified PLA2 = 54%", "result": 26, "unit": "%"}, {"measurement": "Percent Edema", "setting": "[1]; IP 30 mg/kg, percent of contralateral paw, 3 hrs", "result": "120 ± 2.0", "unit": "%"}, {"measurement": "Percent Edema", "setting": "[1]; IP 60 mg/kg", "result": "115 ± 1.6", "unit": "%"}, {"measurement": "Percent of Maximal", "setting": "[1]; IP 60 mg/kg", "result": 17, "unit": "%"}, {"measurement": "Percent Inhibition", "setting": "[1]; IP 60 mg/kg, 60 mg/kg", "result": 50, "unit": "%"}, {"measurement": "effectiveness as PLA2 inhibitor relative to mepacrine", "setting": "[2]", "result": "more than 2 log units"}, {"measurement": "inhibition of PLA2 activity", "setting": "[2]", "result": "inhibited"}, {"measurement": "gross and microscopic injury to tissue", "setting": "small bowel graft; 40 uM in UW media 48 hrs, with or without 20 mg/kg IV at transplantation", "result": "dramatically reduced"}, {"measurement": "bowel color after transplantation", "setting": "small bowel graft; rat, in vivo", "result": "maintained normal bowel color"}, {"measurement": "protection against ischemia and reperfusion injury", "setting": "small bowel graft; small bowel transplantation", "result": "protect"}, {"measurement": "reduction of PLA2 enzyme release", "setting": "ischemic bowel", "result": "more than 80%"}, {"measurement": "IC50", "setting": "clone W2 (P.falciparum)", "result": 13, "unit": "µg/mL"}, {"measurement": "IC50", "setting": "clone D6 (P. falciparum)", "result": 17, "unit": "µg/mL"}, {"measurement": "platelet aggregation", "setting": "platelets", "result": "inhibited"}, {"measurement": "serotonin release", "setting": "[3]", "result": "inhibited"}, {"measurement": "deaths at 144 hrs", "setting": "mice; 400 mg/kg group, n=6", "result": "one animal in the 400 mg/kg group died"}, {"measurement": "tolerability", "setting": "mice; mouse, in vivo", "result": "extremely well tolerated"}, {"measurement": "therapeutic index (LD50/ED50)", "setting": "[4]", "result": "a large positive number"}]}
